Where a SMILES comes first, the peptide text is derived from it.
Target: HLA-A02.01 (Homo sapiens, UniProt P04439, D140Y/D185E/D98H/E176V/E277Q/G131W/G231S/I119V/I121R/I166T/I218V/L300P/L318F/N151K/N90K/P208A/P217A/Q86G/Q94H/R138H/R169H/T345S)
Assay: Class I MHC peptide binding affinity (displacement of radiolabeled reference peptide)
Conditions: allele A02.01; read-out: Observed Affinity (IC50; (nM))
Protocol: In brief, MHCI complexes were prepared and bound to radiolabeled reference peptides. Peptides were incubated at varying concentrations with these complexes for 2 days, and the amount of remaining radiolabeled peptide bound to […] was measured using size exclusion gel-filtration.

| Structure (SMILES) | IC50 [nM] |
| --- | --- |
| CC[C@H](C)[C@H](NC(=O)[C@@H](N)CC(C)C)C(=O)N[C@H](C(=O)N[C@@H](CO)C(=O)N[C@@H](CCCNC(=N)N)C(=O)N[C@H](C(=O)N[C@@H](CC(C)C)C(=O)N[C@@H](CC(C)C)C(=O)N[C@@H](CC(C)C)C(=O)N[C@H](C(=O)O)C(C)C)[C@@H](C)O)C(C)C (H-LIVSRTLLLV-OH; N-terminus and C-terminus assumed) | 10900 |
| CSCC[C@H](N)C(=O)N[C@@H](C)C(=O)N[C@@H](CC(C)C)C(=O)N[C@@H](CC(N)=O)C(=O)N[C@@H](CO)C(=O)N[C@@H](CCC(=O)O)C(=O)N[C@@H](C)C(=O)N[C@@H](CC(C)C)C(=O)N[C@@H](CO)C(=O)N[C@H](C(=O)O)C(C)C | 129 |
| CC[C@H](C)[C@H](NC(=O)[C@@H]1CCCN1C(=O)[C@H](CCCNC(=N)N)NC(=O)[C@H](CCC(N)=O)NC(=O)[C@H](CC(N)=O)NC(=O)[C@H](CCSC)NC(=O)CNC(=O)CNC(=O)[C@H](CCSC)NC(=O)[C@@H](N)CS)C(=O)O | 3670 |
| CC[C@H](C)[C@H](NC(=O)[C@H](CCC(N)=O)NC(=O)[C@@H](N)CO)C(=O)N[C@@H](CCSC)C(=O)N[C@@H](CO)C(=O)N[C@@H](CC(C)C)C(=O)N[C@@H](Cc1c[nH]c2ccccc12)C(=O)NCC(=O)N[C@@H](CC(C)C)C(=O)O | 62 |
| CC[C@H](C)[C@H](NC(=O)[C@@H]1CCCN1C(=O)[C@H](CCCNC(=N)N)NC(=O)[C@H](CCCNC(=N)N)NC(=O)[C@H](CC(N)=O)NC(=O)[C@H](CCSC)NC(=O)[C@@H](N)CO)C(=O)N[C@@H](CC(C)C)C(=O)N[C@H](C(=O)O)[C@@H](C)O | 3840 |
| CSCC[C@H](NC(=O)[C@H](CCCCN)NC(=O)CNC(=O)[C@H](CC(N)=O)NC(=O)[C@H](CCC(N)=O)NC(=O)[C@@H](N)Cc1ccccc1)C(=O)N[C@@H](C)C(=O)N[C@@H](CC(C)C)C(=O)N[C@@H](CO)C(=O)N[C@@H](C)C(=O)O | 6160 |

Second part, the molecule after the results:

| IC50 [nM] | Structure (SMILES) |
| --- | --- |
| 6470 | CSCC[C@H](NC(=O)[C@H](CCC(=O)O)NC(=O)[C@H](CC(C)C)NC(=O)[C@H](CC(C)C)NC(=O)[C@H](CC(C)C)NC(=O)[C@H](CC(=O)O)NC(=O)[C@H](CO)NC(=O)[C@H](CC(C)C)NC(=O)[C@@H]1CCCN1)C(=O)N[C@@H](CC(C)C)C(=O)O (H-PLSDLLLEML-OH; N-terminus and C-terminus assumed) |
| 289 | CSCC[C@H](NC(=O)[C@H](CC(C)C)NC(=O)[C@H](CCCCN)NC(=O)[C@@H](N)CCCCN)C(=O)N[C@@H](CC(C)C)C(=O)N[C@@H](CC(C)C)C(=O)N[C@@H](CCCNC(=N)N)C(=O)N[C@@H](CC(C)C)C(=O)N[C@@H](CC(N)=O)C(=O)N[C@@H](CC(C)C)C(=O)O (H-KKLMLLRLNL-OH; N-terminus and C-terminus assumed) |
| 118 | CC(C)C[C@H](NC(=O)[C@H](CS)NC(=O)[C@H](Cc1c[nH]c2ccccc12)NC(=O)[C@H](CC(C)C)NC(=O)[C@H](CO)NC(=O)[C@H](CO)NC(=O)[C@H](CCCNC(=N)N)NC(=O)[C@H](CCC(N)=O)NC(=O)[C@H](CC(C)C)NC(=O)[C@@H](N)[C@@H](C)O)C(=O)O (H-TLQRSSLWCL-OH; N-terminus and C-terminus assumed) |
| 12000 | CSCC[C@H](NC(=O)[C@H](CCC(=O)O)NC(=O)[C@H](CC(C)C)NC(=O)[C@H](CC(C)C)NC(=O)[C@H](CC(C)C)NC(=O)[C@H](CC(=O)O)NC(=O)[C@H](CC(N)=O)NC(=O)[C@H](CC(C)C)NC(=O)[C@@H]1CCCN1)C(=O)N[C@@H](CC(C)C)C(=O)O (H-PLNDLLLEML-OH; N-terminus and C-terminus assumed) |
| 413 | CC[C@H](C)[C@H](NC(=O)[C@H](Cc1ccccc1)NC(=O)[C@H](CCCNC(=N)N)NC(=O)[C@@H]1CCCN1C(=O)[C@H](CC(C)C)NC(=O)[C@H](CO)NC(=O)[C@H](CCC(N)=O)NC(=O)[C@@H](N)CC(C)C)C(=O)N[C@@H](CC(C)C)C(=O)N[C@@H](CCSC)C(=O)O |
| 2900 | CC(C)C[C@H](NC(=O)[C@H](CC(C)C)NC(=O)[C@H](CC(=O)O)NC(=O)[C@H](CC(N)=O)NC(=O)[C@H](CC(C)C)NC(=O)[C@@H]1CCCN1C(=O)[C@@H](NC(=O)[C@@H](NC(=O)[C@@H](N)CC(N)=O)C(C)C)C(C)C)C(=O)O (H-NVVPLNDLL-OH; N-terminus and C-terminus assumed) |

Source: patent US20220282217A1, “COMPOSITIONS AND METHODS FOR PREPARING T CELL COMPOSITIONS AND USES THEREOF” (priority 2019, published 2022)
